Measured values taken from PubChem BioAssay AID1259407 (Chemical Carcinogenesis Research Information System (CCRIS), 2018).
Calls of active or inactive are those of the source. No rule for the calls is given here.

Tested on: CCRIS mutagenicity, Ames/micronucleus/aberration tests
Test: CCRIS mutagenicity studies
[1] = Test System: AMES SALMONELLA TYPHIMURIUM, Strain/Indicator: TA100, Metabolic Activation: NONE, Method: PREINCUBATION
[2] = Test System: AMES SALMONELLA TYPHIMURIUM, Strain/Indicator: TA100, Metabolic Activation: NONE, Method: STANDARD PLATE

Measured: mutagenic call

COC(=O)CN(N=O)C(N)=O
active: Test System: E. COLI B, Strain/Indicator: H/R30R, Metabolic Activation: NONE active; positive | Test System: E. COLI B, Strain/Indicator: HS30R, Metabolic Activation: NONE active; positive

CC(=O)N[C@@H](CS/C(Cl)=C(\Cl)C(Cl)=C(Cl)Cl)C(=O)O
inactive: [1] inactive; negative
active: Test System: AMES SALMONELLA TYPHIMURIUM, Strain/Indicator: TA100, Metabolic Activation: RAT, KIDNEY, CYTOSOL, Method: PREINCUBATION active; positive | Test System: AMES SALMONELLA TYPHIMURIUM, Strain/Indicator: TA100, Metabolic Activation: RAT, LIVER, S-9, AROCLOR 1254 (10%), Method: PREINCUBATION active; positive

COC(=O)[C@@H]1CS[C@@H]2C(Cl)=C(Cl)C(=O)N21
active: [2] active; positive

O=C(Nc1ccccc1)Nc1snc2ccccc12
inactive: [2] inactive; negative | Test System: AMES SALMONELLA TYPHIMURIUM, Strain/Indicator: TA100, Metabolic Activation: S-9, Method: STANDARD PLATE inactive; negative | Test System: AMES SALMONELLA TYPHIMURIUM, Strain/Indicator: TA1537, Metabolic Activation: NONE, Method: STANDARD PLATE inactive; negative | Test System: AMES SALMONELLA TYPHIMURIUM, Strain/Indicator: TA1537, Metabolic Activation: S-9, Method: STANDARD PLATE inactive; negative

O/N=C/c1ccccn1
active: Test System: E. COLI, Strain/Indicator: WP2 UVRA (PKM101), Metabolic Activation: RAT, LIVER, S-9, PHENOBARBITAL AND 5,6-BENZOFLAVONE, Method: STANDARD PLATE active; positive
inactive: Test System: AMES SALMONELLA TYPHIMURIUM, Strain/Indicator: TA102, Metabolic Activation: RAT, LIVER, S-9, PHENOBARBITAL AND 5,6-BENZOFLAVONE, Method: STANDARD PLATE inactive; negative | Test System: AMES SALMONELLA TYPHIMURIUM, Strain/Indicator: TA2638, Metabolic Activation: RAT, LIVER, S-9, PHENOBARBITAL AND 5,6-BENZOFLAVONE, Method: STANDARD PLATE inactive; negative | Test System: E. COLI, Strain/Indicator: WP2 (PKM101), Metabolic Activation: RAT, LIVER, S-9, PHENOBARBITAL AND 5,6-BENZOFLAVONE, Method: STANDARD PLATE inactive; negative

COc1ccccc1[N+](=O)[O-]
active: End Point: IN VITRO CHROMOSOMAL ABERRATIONS, Test System: CHINESE HAMSTER OVARY CELLS, Metabolic Activation: RAT, LIVER, S-9, AROCLOR 1254 active; positive; precipitation occurred at all doses | End Point: IN VITRO CHROMOSOMAL ABERRATIONS, Test System: CHL CELLS, Metabolic Activation: RAT, LIVER, S-9, SODIUM PHENOBARBITAL AND 5,6-BENZOFLAVONE active; positive (structural changes) | Test System: AMES SALMONELLA TYPHIMURIUM, Strain/Indicator: TA100, Metabolic Activation: HAMSTER LIVER S-9, AROCLOR 1254 (10%), Method: PREINCUBATION active; positive | Test System: AMES SALMONELLA TYPHIMURIUM, Strain/Indicator: TA100, Metabolic Activation: RAT LIVER S-9, AROCLOR 1254 (10%), Method: PREINCUBATION active; positive | Test System: AMES SALMONELLA TYPHIMURIUM, Strain/Indicator: TA100, Metabolic Activation: RAT LIVER S-9, PHENOBARBITAL AND BETA-NAPHTHOFLAVONE, Method: PREINCUBATION active; positive | Test System: AMES SALMONELLA TYPHIMURIUM, Strain/Indicator: TA100, Metabolic Activation: RAT, LIVER, S-9, AROCLOR 1254, Method: STANDARD PLATE active; positive | Test System: AMES SALMONELLA TYPHIMURIUM, Strain/Indicator: TA100, Metabolic Activation: RAT, LIVER, S-9, KANECHLOR 500, Method: PREINCUBATION active; positive | Test System: AMES SALMONELLA TYPHIMURIUM, Strain/Indicator: TA1538, Metabolic Activation: NONE, Method: PREINCUBATION active; positive
inactive: Test System: AMES SALMONELLA TYPHIMURIUM, Strain/Indicator: TA97, Metabolic Activation: HAMSTER LIVER S-9, AROCLOR 1254 (10%), Method: PREINCUBATION inactive; negative | Test System: AMES SALMONELLA TYPHIMURIUM, Strain/Indicator: TA97, Metabolic Activation: NONE, Method: PREINCUBATION inactive; negative | Test System: AMES SALMONELLA TYPHIMURIUM, Strain/Indicator: TA97, Metabolic Activation: RAT LIVER S-9, AROCLOR 1254 (10%), Method: PREINCUBATION inactive; negative | Test System: AMES SALMONELLA TYPHIMURIUM, Strain/Indicator: TA98, Metabolic Activation: HAMSTER LIVER S-9, AROCLOR 1254 (10%), Method: PREINCUBATION inactive; negative | Test System: AMES SALMONELLA TYPHIMURIUM, Strain/Indicator: TA98, Metabolic Activation: RAT LIVER S-9, AROCLOR 1254 (10%), Method: PREINCUBATION inactive; negative | Test System: AMES SALMONELLA TYPHIMURIUM, Strain/Indicator: TA98, Metabolic Activation: RAT LIVER S-9, PHENOBARBITAL AND BETA-NAPHTHOFLAVONE, Method: PREINCUBATION inactive; negative | Test System: AMES SALMONELLA TYPHIMURIUM, Strain/Indicator: TA98, Metabolic Activation: RAT, LIVER, S-9, KANECHLOR 500, Method: PREINCUBATION inactive; negative | Test System: AMES SALMONELLA TYPHIMURIUM, Strain/Indicator: TA100, Metabolic Activation: HAMSTER, LIVER, S-9, AROCLOR 1254, FLAVIN MONONUCLEOTIDE, Method: PREINCUBATION inactive; negative | Test System: AMES SALMONELLA TYPHIMURIUM, Strain/Indicator: TA100, Metabolic Activation: HAMSTER, LIVER, S-9, AROCLOR 1254, Method: PREINCUBATION inactive; negative | Test System: AMES SALMONELLA TYPHIMURIUM, Strain/Indicator: TA100, Metabolic Activation: RAT, LIVER, S-9, AROCLOR 1254, FLAVIN MONONUCLEOTIDE, Method: PREINCUBATION inactive; negative | Test System: AMES SALMONELLA TYPHIMURIUM, Strain/Indicator: TA1535, Metabolic Activation: HAMSTER LIVER S-9, AROCLOR 1254 (10%), Method: PREINCUBATION inactive; negative | Test System: AMES SALMONELLA TYPHIMURIUM, Strain/Indicator: TA1535, Metabolic Activation: NONE, Method: PREINCUBATION inactive; negative | Test System: AMES SALMONELLA TYPHIMURIUM, Strain/Indicator: TA1535, Metabolic Activation: RAT LIVER S-9, AROCLOR 1254 (10%), Method: PREINCUBATION inactive; negative | Test System: AMES SALMONELLA TYPHIMURIUM, Strain/Indicator: TA1535, Metabolic Activation: RAT LIVER S-9, PHENOBARBITAL AND BETA-NAPHTHOFLAVONE, Method: PREINCUBATION inactive; negative | Test System: AMES SALMONELLA TYPHIMURIUM, Strain/Indicator: TA1537, Metabolic Activation: HAMSTER LIVER S-9, AROCLOR 1254 (10%), Method: PREINCUBATION inactive; negative | Test System: AMES SALMONELLA TYPHIMURIUM, Strain/Indicator: TA1537, Metabolic Activation: NONE, Method: PREINCUBATION inactive; negative | Test System: AMES SALMONELLA TYPHIMURIUM, Strain/Indicator: TA1537, Metabolic Activation: RAT LIVER S-9, AROCLOR 1254 (10%), Method: PREINCUBATION inactive; negative | Test System: AMES SALMONELLA TYPHIMURIUM, Strain/Indicator: TA1537, Metabolic Activation: RAT LIVER S-9, PHENOBARBITAL AND BETA-NAPHTHOFLAVONE, Method: PREINCUBATION inactive; negative | Test System: E.COLI, Strain/Indicator: WP2UVRA, Metabolic Activation: NONE, Method: PREINCUBATION inactive; negative | Test System: E.COLI, Strain/Indicator: WP2UVRA, Metabolic Activation: RAT LIVER S-9, PHENOBARBITAL AND BETA-NAPHTHOFLAVONE, Method: PREINCUBATION inactive; negative

Nc1cc2c3c(cccc3c1)-c1ccccc1-2
active: Test System: AMES SALMONELLA TYPHIMURIUM, Strain/Indicator: TA98, Metabolic Activation: RAT, LIVER, S-9, AROCLOR 1254 (2 OR 4%), Method: STANDARD PLATE active; positive | Test System: AMES SALMONELLA TYPHIMURIUM, Strain/Indicator: TA100, Metabolic Activation: RAT, LIVER, S-9, AROCLOR 1254 (4%), Method: STANDARD PLATE active; positive | Test System: AMES SALMONELLA TYPHIMURIUM, Strain/Indicator: TA1535, Metabolic Activation: RAT, LIVER, S-9, AROCLOR 1254 (4%), Method: STANDARD PLATE active; positive | Test System: AMES SALMONELLA TYPHIMURIUM, Strain/Indicator: TA1537, Metabolic Activation: RAT, LIVER, S-9, AROCLOR 1254 (4%), Method: STANDARD PLATE active; positive

ClC1C=Cc2cc3c4c(ccc5cccc(c54)C=3)c2=C1 (stereo not given)
active: Test System: AMES SALMONELLA TYPHIMURIUM, Strain/Indicator: TA98, Metabolic Activation: NONE, Method: PREINCUBATION active; positive

N[C@@H](CCC(=O)N[C@@H](CSN=O)C(=O)NCC(=O)O)C(=O)O
active: [1] active; positive | Test System: AMES SALMONELLA TYPHIMURIUM, Strain/Indicator: TA100, Metabolic Activation: RAT, LIVER, S-9, AROCLOR, Method: PREINCUBATION active; positive | Test System: AMES SALMONELLA TYPHIMURIUM, Strain/Indicator: TA102, Metabolic Activation: NONE, Method: PREINCUBATION active; positive
